Laboratory results taken from BigSolDB 2.1.

CC(CO)(CO)CO
solubility (mole fraction)
Settings	283.15 K	288.15 K	293.15 K	298.15 K	303.15 K	311.05 K	313.15 K	318.15 K
in ethyl acetate	0.00205	0.00263	0.00335	0.00433	0.00528	0.00673	0.00841	0.0105
in methyl acetate	0.0026	0.00317	0.00398	0.00512	0.00638	0.00801	0.00997	0.013
in n-butanol	0.0386	0.0449	0.0535	0.0634	0.0769	0.0914	0.11	0.131
